Source: patent publication US11008323B2, “Substituted tricyclic 1,4-benzodiazepinone derivatives as allosteric modulators of group II metabotropic glutamate receptors” (Domain Therapeutics, priority 2015, dated 2021)

What was measured:
human mGluR3 (hmGluR3) = target: T1, human mGluR3 (hmGluR3) (Homo sapiens, UniProt Q14832); experiment: Human mGluR3 positive allosteric modulator evaluation using Ca++ functional assay; type: cell-based; conditions: hmGluR3 transiently over-expressed in HEK-293 cells; stimulated by EC50 glutamate concentration; intracellular Ca2+ (Fluo4AM, FLIPR Tetra)
T1 construct: expressed in transfected cells; host or cells: HEK-293 cells, transient co-transfection by electroporation
In short: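 Calcium flux (Fluo4, ex 485/em 525 nm) recorded first 10 min with compound alone, then 3 min after an EC50 glutamate challenge, giving agonist and PAM EC50 from 20-concentration sigmoidal fits. Receptor was transiently co-transfected in HEK-293 with chimeric G protein and glutamate transporters.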

cortical primary neurons = experiment: NMDA-induced neurotoxicity assay on cortical primary neurons (MTT test); type: cell-based, mouse; conditions: 24 hours
Experimental: Primary mouse neurons were incubated with vehicle or NMDA (60 μM)+vehicle or example 207 or LY379268 (mixed mGluR2/3 agonist used as positive control) for 24 hours. Tests were performed in triplicate. Neuron viability was measured using a MTT test.

T1 sequence (Q14832 23-879): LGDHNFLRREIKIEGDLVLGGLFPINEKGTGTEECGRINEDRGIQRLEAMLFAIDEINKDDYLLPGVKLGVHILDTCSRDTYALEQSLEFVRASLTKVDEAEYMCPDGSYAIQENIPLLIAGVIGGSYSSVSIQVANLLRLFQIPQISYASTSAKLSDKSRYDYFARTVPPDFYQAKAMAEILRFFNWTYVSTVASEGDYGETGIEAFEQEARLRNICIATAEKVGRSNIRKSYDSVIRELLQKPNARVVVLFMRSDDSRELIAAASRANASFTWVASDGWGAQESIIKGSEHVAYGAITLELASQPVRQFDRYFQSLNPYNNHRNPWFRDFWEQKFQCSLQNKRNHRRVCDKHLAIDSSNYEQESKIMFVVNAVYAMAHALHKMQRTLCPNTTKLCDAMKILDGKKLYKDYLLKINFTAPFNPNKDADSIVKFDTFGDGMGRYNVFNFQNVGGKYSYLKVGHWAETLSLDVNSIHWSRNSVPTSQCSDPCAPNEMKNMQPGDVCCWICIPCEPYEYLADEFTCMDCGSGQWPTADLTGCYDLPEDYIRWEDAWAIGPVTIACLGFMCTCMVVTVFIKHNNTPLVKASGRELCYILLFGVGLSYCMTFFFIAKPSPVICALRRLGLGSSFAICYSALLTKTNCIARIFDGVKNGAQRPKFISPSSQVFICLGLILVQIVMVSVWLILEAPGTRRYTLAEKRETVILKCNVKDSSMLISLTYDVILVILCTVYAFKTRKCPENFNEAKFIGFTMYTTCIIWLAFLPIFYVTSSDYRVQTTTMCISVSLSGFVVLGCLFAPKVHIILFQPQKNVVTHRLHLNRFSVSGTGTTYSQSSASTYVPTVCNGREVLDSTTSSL

Structure (SMILES)	EC50 (human mGluR3 (hmGluR3)) [µM]	melting point [°C]	toxicity induced by NMDA (neuroprotection), cortical primary neurons (cortical primary neurons; NMDA 60 μM, effect tending to disappear at higher concentrations)	toxicity on cortical primary neuron viability (cortical primary neurons; alone, in absence of NMDA challenge, 30 nM to 30 μM)
COCc1cc2n(c1)-c1cc(-c3ccc(F)nc3)ccc1C1(CC1)N(C)C2=O [Example 207]	< 0.1	71 to 80	reduces in a dose-dependent manner the toxicity induced by NMDA up to 1 μM	no toxicity
Cc1ncoc1-c1ccc2c(c1)-n1cccc1C(=O)N(C)C21CC1 [Example 49, 5-Methyl-9-(4-methyl-oxazol-5-yl)-spiro[benzo[f]pyrrolo[1,2-a][1,4]diazepine-6,1′-cyclopropan]-4(5H)-one]	> 1	120 to 128		
CN1C(=O)c2cccn2-c2c(ccc(-c3ccc(F)nc3)c2F)C12CC2 [Example 76, 10-Fluoro-5-Methyl-9-(6-fluoro-pyridin-3-yl)-spiro[benzo[f]pyrrolo[1,2-a][1,4]diazepine-6,1′-cyclopropan]-4(5H)-one]	< 0.1	153 to 157		
Cc1ccc(-c2ccc3c(c2)-n2cc(CO)cc2C(=O)N(C)C32CC2)cn1 [Example 202]	< 0.1	144 to 154		
Cc1ncsc1-c1ccc2c(c1)-n1cccc1C(=O)N(C)C21CC1 [Example 50, 5-Methyl-9-(4-methylthiazol-5-yl)-spiro[benzo[f]pyrrolo[1,2-a][1,4]diazepine-6,1′-cyclopropan]-4(5H)-one]	0.1 to 1	205 to 212		
CN1C(=O)c2cccn2-c2cc(-c3cc[nH]c(=O)c3)ccc2C12CC2 [Example 68, 5-Methyl-9-(2-hydroxypyridin-4-yl)-spiro[benzo[f]pyrrolo[1,2-a][1,4]diazepine-6,1′-cyclopropan]-4(5H)-one]	> 1	183 to 197		
CN1C(=O)c2cccn2-c2cc(CC#N)ccc2C12CC2 [Example 51, 5-Methyl-9-acetonitrile-spiro[benzo[f]pyrrolo[1,2-a][1,4]diazepine-6,1′-cyclopropan]-4(5H)-one]	> 1	60 to 69		
CN1C(=O)c2cc(-c3ncc[nH]3)cn2-c2cc(-c3ccc(F)nc3)ccc2C12CC2 [Example 186]	< 0.1	> 250		
CN1C(=O)c2cccn2-c2cc(-c3cccnc3C(C)(C)O)ccc2C12CC2 [Example 72, 5-Methyl-9-(2-(1-hydroxy-1-methyl-ethyl)-pyridin-3-yl)-spiro[benzo[f]pyrrolo[1,2-a][1,4]diazepine-6,1′-cyclopropan]-4(5H)-one]	> 1	220 to 228		
CN1C(=O)c2cccn2-c2cc(-c3cccc(-c4nnn[nH]4)c3)ccc2C12CC2 [Example 45, 5-Methyl-9-(3-(1H-tetrazol-5-yl)-phenyl)-spiro[benzo[f]pyrrolo[1,2-a][1,4]diazepine-6,1′-cyclopropan]-4(5H)-one]	0.1 to 1	> 250		
Cc1ncccc1-c1ccc2c(c1)-n1cc(C(=O)O)cc1C(=O)N(C)C21CC1 [Example 176, 5-Methyl-9-(2-methylpyridin-3-yl)-4-oxo-4,5-dihydrospiro[benzo[f]pyrrolo[1,2-a][1,4]diazepine-6,1′-cyclopropane]-2-carboxylic acid]	0.1 to 1	> 250		
CN1C(=O)c2cccn2-c2cc(-c3ccc(C(F)(F)F)cn3)ccc2C12CC2 [Example 69, 5-Methyl-9-(5-trifluoromethylpyridin-2-yl)-spiro[benzo[f]pyrrolo[1,2-a][1,4]diazepine-6,1′-cyclopropan]-4(5H)-one]	0.1 to 1	78 to 89		
Cc1ncccc1-c1ccc2c(c1)-n1cc(C#N)cc1C(=O)N(C)C21CC1 [Example 153]	0.1 to 1	> 250		
CN1C(=O)c2cccn2-c2cc(-c3cccnc3F)ccc2C12CC2 [Example 33, 5-Methyl-9-(2-fluoropyridin-3-yl)-spiro[benzo[f]pyrrolo[1,2-a][1,4]diazepine-6,1′-cyclopropan]-4(5H)-one]	0.1 to 1	158 to 162		
CN1C(=O)c2cccn2-c2cc(-c3ccc(C(F)(F)F)nc3)ccc2C12CC2 [Example 60, 5-Methyl-9-(6-trifluoromethylpyridin-3-yl)-spiro[benzo[f]pyrrolo[1,2-a][1,4]diazepine-6,1′-cyclopropan]-4(5H)-one]	0.1 to 1	88 to 97		
CN1C(=O)c2cc(-c3ccccc3)nn2-c2cc(-c3ccccc3)ccc2C12CC2 [Example 123, 2,9-Diphenyl-5-methyl-2-spiro[benzo[f]pyrazolo[1,5-a][1,4]diazepine-6,1′-cyclopropan]-4(5H)-one]	> 1	133 to 140		

Structure (SMILES)	EC50 (human mGluR3 (hmGluR3)) [µM]	melting point [°C]	toxicity induced by NMDA (neuroprotection), cortical primary neurons (cortical primary neurons; NMDA 60 μM, effect tending to disappear at higher concentrations)	toxicity on cortical primary neuron viability (cortical primary neurons; alone, in absence of NMDA challenge, 30 nM to 30 μM)
[2H]C([2H])([2H])N1C(=O)c2cccn2-c2cc(-c3ccc(F)nc3)ccc2C12CC2 [Example 55, 5-(Methyl-d3)-9-(6-fluoropyridin-3-yl)-spiro[benzo[f]pyrrolo[1,2-a][1,4]diazepine-6,1′-cyclopropan]-4(5H)-one]	< 0.1	166 to 178		
CN1C(=O)c2cccn2-c2cc(C=CC#N)ccc2C12CC2 (mixture of isomers) [Example 52, 5-Methyl-9-actylonitrile-spiro[benzo[f]pyrrolo[1,2-a][1,4]diazepine-6,1′-cyclopropan]-4(5H)-one]	0.1 to 1	130 to 138		
CN1C(=O)c2cc(-c3ccccc3)cn2-c2cc(-c3cccnc3C(F)(F)F)ccc2C12CC2 [Example 100, 5-Methyl-2-phenyl-9-(2-trifluoromethyl-pyridin-3-yl)-spiro[benzo[f]pyrrolo[1,2-a][1,4]diazepine-6,1′-cyclopropan]-4(5H)-one]	> 1	199 to 204		
CN1C(=O)c2cc(-c3ccccc3)cn2-c2cc(-c3cccc(C(=O)O)c3)ccc2C12CC2 [Example 94, 3-(5-methyl-4-oxo-2-phenyl-4,5-dihydrospiro[benzo[f]pyrrolo[1,2-a][1,4]diazepine-6,1′-cyclopropan]-9-yl)benzoic acid]	< 0.1	> 250		
Cc1n[nH]c(C)c1-c1ccc2c(c1)-n1cccc1C(=O)N(C)C21CC1 [Example 27, 5-Methyl-9-(3,5-dimethyl-1H-pyrazol-4-yl)-spiro[benzo[f]pyrrolo[1,2-a][1,4]diazepine-6,1′-cyclopropan]-4(5H)-one]	> 1	115 to 125		
CN1C(=O)c2cccn2-c2cc(-c3cccnc3C(F)(F)F)ccc2C12CC2 [Example 36, 5-Methyl-9-(2-trifluoromethylpyridin-3-yl)-spiro[benzo[f]pyrrolo[1,2-a][1,4]diazepine-6,1′-cyclopropan]-4(5H)-one]	0.1 to 1	160 to 165		
CN1C(=O)c2cc(-c3ccccc3)cn2-c2cc(-c3cccnc3F)ccc2C12CC2 [Example 113, 5-Methyl-2-phenyl-9-(2-fluoro-pyridin-3-yl)-spiro[benzo[f]pyrrolo[1,2-a][1,4]diazepine-6,1′-cyclopropan]-4(5H)-one]	0.1 to 1	143 to 149		
CN1C(=O)c2cc(-c3ccccc3)nn2-c2cc(C#N)ccc2C12CC2 [Example 137, 9-Cyano-5-methyl-2-phenyl-spiro[benzo[f]pyrazolo[1,5-a][1,4]diazepine-6,1′-cyclopropan]-4(5H)-one]	> 1	196 to 200		
Cc1nc(F)ccc1-c1ccc2c(c1)-n1cccc1C(=O)N(C)C21CC1 [Example 32, 5-Methyl-9-(6-fluoro-2-methylpyridin-3-yl)-spiro[benzo[f]pyrrolo[1,2-a][1,4]diazepine-6,1′-cyclopropan]-4(5H)-one]	< 0.1	198 to 202		
CN1C(=O)c2cc(-c3ccccc3)cn2-c2cc(-c3ccc(F)cn3)ccc2C12CC2 [Example 110, 5-Methyl-2-phenyl-9-(5-fluoro-pyridin-2-yl)-spiro[benzo[f]pyrrolo[1,2-a][1,4]diazepine-6,1′-cyclopropan]-4(5H)-one]	< 0.1	140 to 151		
CN1C(=O)c2cc(-c3ccccc3)cn2-c2cc(-c3cnccn3)ccc2C12CC2 [Example 108, 5-Methyl-2-phenyl-9-pyrazin-2-yl-spiro[benzo[f]pyrrolo[1,2-a][1,4]diazepine-6,1′-cyclopropan]-4(5H)-one]	0.1 to 1	130 to 141		
CN1C(=O)c2cc(-c3nnco3)cn2-c2cc(-c3cccc(C#N)c3)ccc2C12CC2 [Example 192]	< 0.1	> 250		
CN1C(=O)c2cccn2-c2cc(-c3c[nH]nc3C(F)(F)F)ccc2C12CC2 [Example 28, 5-Methyl-9-(3-trifluoromethyl-1H-pyrazol-4-yl)-spiro[benzo[f]pyrrolo[1,2-a][1,4]diazepine-6,1′-cyclopropan]-4(5H)-one]	> 1	> 250		
CN1C(=O)c2cc(-c3ccccc3)nn2-c2cc(-c3cnco3)ccc2C12CC2 [Example 132, 9-(Oxazol-5-yl)-5-methyl-2-phenyl-spiro[benzo[f]pyrazolo[1,5-a][1,4]diazepine-6,1′-cyclopropan]-4(5H)-one]	0.1 to 1	214 to 220		
CN1C(=O)c2cc(-c3ccccc3)nn2-c2cc(N3CCCC3)ccc2C12CC2 [Example 139, 5-Methyl-2-phenyl-9-(pyrrolidin-1-yl)-spiro[benzo[f]pyrazolo[1,5-a][1,4]diazepine-6,1′-cyclopropan]-4(5H)-one]	> 1	226 to 230		
